Values of other authors, collected in patent publication US12285031B2, “Beverage with collagen and additional additives” (WELLDRINKS LTD, priority 2015, dated 2025).
Square brackets hold non-standard residues; d marks the D form. Peptide text beside a SMILES is read from it. Hyp = O=C(O)[C@@H]1C[C@@H](O)CN1

Columns and labels:
dermal fibroblasts = settings: in vitro
[1] = adult humans

Structure (SMILES)	cell proliferation of dermal fibroblasts (dermal fibroblasts)	fraction of ingested Mn absorbed [1]	production of hyaluronic acid by dermal fibroblasts (dermal fibroblasts)
O=C(O)CNC(=O)[C@@H]1C[C@@H](O)CN1 [Hyp-Gly, hydroxyprolyl-glycine] (H-[Hyp]-Gly-OH)	enhance cell proliferation	–	–
[Mn+2] [Mn, Manganese]	–	3-5%	–
O=C(O)[C@@H]1C[C@@H](O)CN1C(=O)[C@@H]1CCCN1 [Pro-Hyp, prolyl-hydroxyproline] (H-Pro-[Hyp]-OH)	enhance cell proliferation	–	enhances
